The values below are quoted from earlier work in US20200188405A1, “COMPOSITION FOR TREATING OCULAR DISORDERS SUCH AS MACULAR DEGENERATION, RETINOPATHY AND GLAUCOMA” (RHEOSTASIS, LLC, priority 2017, published 2020).

SMILES strings stand for the structures. Structures can show the parent of a compound that is named as a salt.

The test system of the series is β (beta) blocker. To be noted: ocular applications.

On to `CC(C)(C)NC[C@H](O)COc1nsnc1N1CCOCC1` [Timolol Maleate], for which the “potency as β blocker relative to propranolol” value is reported as 5-10 times.
